Assay results from US20180016244A1, “DEUTERIUM-SUBSTITUTED OXADIAZOLES” (Auspex Pharmaceuticals, Inc., priority 2015, published 2018).

Experiment: In vitro human liver microsomal stability assay
Format: in vitro ADME
Conditions: human liver microsomes 2 mg per mL protein, NADPH-generating system, 1 μM test compound, 37±1° C., 0-240 min, change relative to non-deuterated d0 (Example 1); for Half-Life % change over d0: degradation half-life
Description: In Vitro Liver Microsomal Stability Assay
Human liver microsomal stability assays were conducted at 2 mg per mL liver microsome protein with an NADPH-generating system consisting of NADP (1 mM, pH 7.4), […] (5 mM, pH 7.4), and glucose-6-phosphate dehydrogenase (I unit/mL).
Test compounds were prepared as solutions in DMSO and added to the assay mixture (1 μM, final concentration in incubation) to be incubated at 37±1° C. Reactions were initiated with the addition of cofactor and were stopped at 0, 60, 120, or 240 min after cofactor addition with stop reagent (0.2 mL acetonitrile). Samples were centrifuged (920×g for 10 min at 10° C.) in 96-well plates. Supernatant fractions were analyzed by LC-MS/MS to determine the percent remaining and estimate the degradation half-life of the test compounds.

Row | Compound | Clearance % change over d0 | Half-Life % change over d0
1 | CC(C)Oc1ccc(-c2nc(-c3cccc4c3CC[C@@H]4NCCO)no2)cc1C#N [Example 1, 5-[3-[(1S)-1-[(2-hydroxyethyl)amino]-2,3-dihydro-1H-inden-4-yl]-1,2,4-oxadiazol-5-yl]-2-(propan-2-yloxy)benzonitrile, reference compound] | 0.00% | 0.0%
2 | [2H]C(C)(C)Oc1ccc(-c2nc(-c3cccc4c3CC[C@@H]4NCCO)no2)cc1C#N [Example 2, 5-[3-[(1S)-1-[(2-hydroxyethyl)amino]-2,3-dihydro-1H-inden-4-yl]-1,2,4-oxadiazol-5-yl]-2-[(2-^2H)propan-2-yloxy]benzonitrile] | 1% | −9.0%
3 | [2H]C([2H])([2H])C([2H])(Oc1ccc(-c2nc(-c3cccc4c3CC[C@@H]4NCCO)no2)cc1C#N)C([2H])([2H])[2H] [Example 3, 5-[3-[(1S)-1-[(2-hydroxyethyl)amino]-2,3-dihydro-1H-inden-4-yl]-1,2,4-oxadiazol-5-yl]-2-[(^2H7)propan-2-yloxy]benzonitrile] | 7% | 0.0%
4 | [2H]C(C)(C)Oc1ccc(-c2nc(-c3cccc4c3CC[C@@H]4NC([2H])([2H])C([2H])([2H])O)no2)cc1C#N [Example 4, 5-[3-[(1S)-1-[[2-hydroxy(^2H4)ethyl]amino]-2,3-dihydro-1H-inden-4-yl]-1,2,4-oxadiazol-5-yl]-2-[(2-^2H)propan-2-yloxy]benzonitrile] | 5% | −4.6%
5 | [2H]C([2H])([2H])C([2H])(Oc1ccc(-c2nc(-c3cccc4c3CC[C@@H]4NC([2H])([2H])C([2H])([2H])O)no2)cc1C#N)C([2H])([2H])[2H] [Example 5, 5-[3-[(1S)-1-[[2-hydroxy(^2H7)ethyl]amino]-2,3-dihydro-1H-inden-4-yl]-1,2,4-oxadiazol-5-yl]-2-[(^2H4)propan-2-yloxy]benzonitrile] | 11% | 0.0%
6 | [2H]C(C)(C)Oc1ccc(-c2nc(-c3cccc4c3CC[C@]4([2H])NCCO)no2)cc1C#N [Example 6, 5-[3-[(1S)-1-[(2-hydroxyethyl)amino]-2,3-dihydro(1-^2H)-1H-inden-4-yl]-1,2,4-oxadiazol-5-yl]-2-[(2-^2H)propan-2-yloxy]benzonitrile] | 2% | 17.9%
